Experimental data from PubChem BioAssay (NCI).
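Five compound concentrations were applied to cells in 96-well plates for 48 hours; endpoints were derived by simple linear interpolation of the resulting dose-response curve. The concentration for 50% growth inhibition is given as GI50. TGI is the concentration that stops growth completely.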

Experiments:
Experiment in all cases: growth of human tumour cells (NCI), 48 h
SF-295 CNS = system: SF-295 CNS
786-0 renal = system: 786-0 renal
SF-268 CNS = system: SF-268 CNS
U251 CNS = system: U251 CNS
SR leukemia = system: SR leukemia
OVCAR-4 ovarian = system: OVCAR-4 ovarian
CAKI-1 renal = system: CAKI-1 renal
OVCAR-8 ovarian = system: OVCAR-8 ovarian
HOP-92 NSCLC = system: HOP-92 NSCLC
EKVX NSCLC = system: EKVX NSCLC

SMILES | GI50 (SF-295 CNS) [µM] | TGI (SF-295 CNS) [µM] | GI50 (786-0 renal) [µM] | TGI (786-0 renal) [µM] | GI50 (SF-268 CNS) [µM] | TGI (SF-268 CNS) [µM] | GI50 (U251 CNS) [µM] | TGI (U251 CNS) [µM] | GI50 (SR leukemia) [µM] | TGI (SR leukemia) [µM] | GI50 (OVCAR-4 ovarian) [µM] | TGI (OVCAR-4 ovarian) [µM] | GI50 (CAKI-1 renal) [µM] | TGI (CAKI-1 renal) [µM] | GI50 (OVCAR-8 ovarian) [µM] | TGI (OVCAR-8 ovarian) [µM] | GI50 (HOP-92 NSCLC) [µM] | TGI (HOP-92 NSCLC) [µM] | GI50 (EKVX NSCLC) [µM] | TGI (EKVX NSCLC) [µM]
COc1ccc(-c2oncc2-c2cc(OC)c3c(c2)OCO3)cc1 | 2.13 | 10.3 | 7.67 | > 100 | 7.38 | > 100 | 3.8 | > 87.3 | 1.13 | 39.6 | 10 | > 100 | 2.16 | 31.2 | 4.86 | > 100 | 2.08 | 28.6 |  | 
O=C(CN/C=C\C(=O)c1cc(Cl)ccc1Cl)c1ccccc1 | 20.4 | 50.7 | 36.1 | > 100 | 24.8 | 83.4 | 33.1 | 99.6 | > 100 | > 100 | 49.8 | > 100 | 26.6 | 66.2 | 26.4 | 71.4 |  |  | 31.1 | 99.2
Cn1c2ccccc2c(=S)c2cc(NC(=O)CCCCC(=O)Nc3ccc4c(c3)c(=S)c3ccccc3n4C)ccc21 |  | > 100 |  | > 100 |  | > 100 |  | > 100 |  | > 100 |  |  |  | > 100 |  | > 100 |  | > 100 |  | > 100
Clc1cccc(Cc2cn3cc(-c4ccccc4)nc3s2)c1 |  |  | 26.7 | > 100 | 12.8 | > 100 | 9.18 | 81.2 | 36.5 | > 100 | 4.42 | > 100 | 2.68 | > 100 | 20.5 | > 100 | 11.5 | 34.3 |  | 
O=S(=O)(c1ccccc1)C1CN(Cc2ccccc2)CCN(Cc2ccccc2)C1 |  | > 100 |  | > 100 |  | 97.7 |  | > 100 |  | > 100 |  | > 72.6 |  | 98.9 |  | > 60.3 |  |  |  | > 100
O=C1[C@H](c2ccccc2)C2c3ccccc3CCN12 (stereo partly specified) | > 100 | > 100 | > 100 | > 100 | > 100 | > 100 | > 100 | > 100 | > 100 | > 100 | > 100 | > 100 | > 100 | > 100 | > 100 | > 100 |  |  | > 100 | > 100
FC(F)(F)c1ccccc1C=NC12CC3CC(CC(C3)C1)C2 |  | > 100 |  | > 100 |  | > 100 |  | > 100 |  | > 100 |  | > 100 |  | > 100 |  | > 100 |  |  |  | > 100
NNc1nc(-c2ccccn2)nc2sc3c(c12)CCCCCC3 |  |  | 5.65 | 25.2 | 7.25 | > 100 | 4.5 | 49.6 |  |  | 10.4 | > 100 | 0.575 | 25.6 | 4.39 | > 100 | 3.54 | 48.6 |  | 
Cc1ccc(S(=O)(=O)NC(=O)Nc2nc(Cl)cc(Cl)n2)cc1 |  | > 100 |  | > 100 |  | > 100 |  | > 100 |  |  |  | > 100 |  | > 100 |  | > 100 |  | > 100 |  | > 100
C#CCOc1c(OC)cc(C(=O)/C(C)=C/c2cccc(N=[N+]=[N-])c2)cc1OC | 0.122 | > 100 | 0.18 | > 100 | 0.637 | > 100 | 0.0793 | > 100 |  |  | 1.19 | > 100 | 0.247 | > 100 | 0.427 | > 100 | 0.196 | 9.11 | 0.517 | > 100
[O-][N+]1=C(c2ccccc2)COc2ccccc21 |  | > 100 |  | > 100 |  | > 100 |  | > 100 |  | > 100 |  | > 100 |  | > 100 |  | > 100 |  | > 100 |  | 
COc1cc([C@@H]2c3cc4c(cc3[C@@H](NC(=O)c3ccc([N+](=O)[O-])cc3)C3COC(=O)[C@@H]32)OCO4)cc(OC)c1O (stereo partly specified) |  | 11.5 |  | 1.4 |  | 5.77 |  | 1.21 |  |  |  | > 100 |  | 8.42 |  | 6.05 |  | 40.2 |  | 6.55
Cn1cc(C2=C(c3cccc(NCC(O)CO)c3)C(=O)NC2=O)c2cc(Cl)ccc21 (stereo unspecified) | 0.237 | 8.94 | 4.31 | 16.5 | 4.46 | 10.5 | 2.33 | 13.7 | 3.03 | > 25 | 1.87 | 11.6 | 2.56 | 13.2 | 5.08 | 17.4 | 8.16 | 14.1 |  | 
CCC1=C[C@H]2CN(CCc3c([nH]c4ccccc34)[C@@](C(=O)OC)(c3cc4c(cc3OC)N(C)[C@H]3[C@@](O)(C(=O)OC)[C@H](OC(C)=O)[C@]5(CC)[C@@H]6C[C@@H]6CN6CC[C@]43[C@@H]65)C2)C1 | 0.0142 | 3.15 | 0.0315 | 3.07 | 0.124 | 4.04 | 0.0309 | 3.22 |  |  | 0.375 | > 25 |  |  | 0.127 | 5.8 | 0.109 | 1.76 | 0.0966 | > 25
COc1ccc2c(c1)N(CCO)C1=C(C(=O)OC1)C2c1cccc(Br)c1 (stereo unspecified) | 0.0319 | 1.52 | 0.12 | 41.4 | 0.0864 | 21.3 | 0.0534 | 15.9 | 0.0826 | 55.7 | 0.123 | > 100 | 0.0395 | 35.6 | 0.14 | 13.9 |  |  | 0.694 | > 100
O=C(Nc1ccc(Cl)cc1Cl)/C(Cl)=C1/Sc2ccccc2NC1=O |  |  |  | > 100 |  | > 100 |  | > 100 |  |  |  | > 100 |  | > 100 |  | > 100 |  | 51.6 |  | > 100
